Measurements taken from US6479435B1, “Diaryl ethers and processes for their preparation and herbicidal and desiccant compositions containing them” (ISK Americas Incorporated, priority 1997, dated 2002).

Legend:
Format in all cases: in vivo
[1] = tested on: Broadleaf Weeds; test: Pre-emergent application in combination with other herbicides, percent control of broadleaf weeds
Experimental: (§1) All plants were grown in 10 cm square plastic pots which were filled with a sandy loam soil mix. For preemerge tests, seeds were planted one day prior to application of the test compounds. Immediately after application, test units of the pre-emerge applications were watered at the soil surface to incorporate the test materials. Subsequently, these test units were bottom-watered.
(§2) All test compounds were dissolved in acetone and applied to the test units in a volume of 187 l/ha. […] Plants were arranged on a shelf so that the top of the canopy (post-emerge) or top of the soil surface (pre-emerge) was 40-45 cm below the nozzle. Pressurized air was used to force the test solution through the nozzle as it was mechanically advanced (via electrically driven chain drive) over the top of all test plants/pots. This application simulates a typical commercial field herbicide application.
(§3) At 14 days after application of the test materials, phytotoxicity ratings were recorded. A rating scale of 0-100 was used as previously described in Research Methods in Weed Science, 2nd edition, B. Truelove, Ed., Southern Weed Science Society, Auburn University, Auburn, Ala., 1977. Briefly, “0” corresponds to no damage and “100” corresponds to complete death of all plants in the test unit. This scale was used both to determine efficacy against weed species and damage to crop species. Herbicide activity data for various compounds of this invention, which are shown by compound number in Tables 1-9, are shown in Tables 13 and 14.
(§4) (Note: Weed species abbreviations are from the Composite List of Weeds published by the Weed Science Society of America, 1989.)
The following examples illustrate the utility of combinations of compounds of this invention and existing herbicides. The methods used are identical to those for the application of single compounds except the commercial formulations of existing herbicides were added to the spray mixture in the appropriate amounts before spraying. […]
(§5) Combination Example 2. Pre-emergent Application of Compound 9-1 with Dimethenamid

[2] = tested on: Grass Weeds; test: Pre-emergent application in combination with other herbicides, percent control of grass weeds; conditions: 1121 g ai/ha
Experimental: as §1, §2, §3, §4
The following examples illustrate the utility of combinations of compounds of this invention and existing herbicides. The methods used are identical to those for the application of single compounds except the commercial formulations of existing herbicides were added to the spray mixture in the appropriate amounts before spraying.
Combination Example 1. Pre-emergent Application of Compound 9-1 with Metolachlor
as §5

[3] = tested on: Johnsongrass (Sorghum halepense, SORHA); test: Pre-emerge greenhouse herbicide test, phytotoxicity rating; conditions: 500 g ai/ha, 14 days after application, rating scale 0-100
Summary of the method: (§6)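 Seeds sown in sandy loam mix one day before track-sprayer application of compounds in acetone at 125–1000 g ai/ha (187 l/ha), then surface-watered to incorporate and bottom-watered. Visual rating 14 days after application on a 0–100 scale (0 = no damage, 100 = all plants dead).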

[4] = tested on: barnyardgrass (Echinochloa crusgalli, ECHCG); test: as above; conditions: 500 g ai/ha, 14 days after application, rating scale 0-100
Summary of the method: as §6

[5] = tested on: common ragweed (Ambrosia artemisiifolia L., AMBEL); test: as above; conditions: 500 g ai/ha, 14 days after application, rating scale 0-100
Summary of the method: as §6

[6] = tested on: green foxtail (Setaria viridis, SETVI); test: as above; conditions: 500 g ai/ha, 14 days after application, rating scale 0-100
Summary of the method: as §6

[7] = tested on: ivyleaf morningglory (Ipomoea hederacea, IPOHE); test: as above; conditions: 500 g ai/ha, 14 days after application, rating scale 0-100
Summary of the method: as §6

[8] = tested on: lambsquarters (Chenopodium album, CHEAL); test: as above; conditions: 500 g ai/ha, 14 days after application, rating scale 0-100
Summary of the method: as §6

[9] = tested on: large crabgrass (Digitaria sanguinalis, DIGSA); test: as above; conditions: 500 g ai/ha, 14 days after application, rating scale 0-100
Summary of the method: as §6

[10] = tested on: redroot pigweed (Amaranthus retroflexus, AMARE); test: as above; conditions: 500 g ai/ha, 14 days after application, rating scale 0-100
Summary of the method: as §6

[11] = tested on: sicklepod (Cassia obtusifolia, CASOB); test: as above; conditions: 500 g ai/ha, 14 days after application, rating scale 0-100
Summary of the method: as §6

[12] = tested on: velvetleaf (Abutilon theophrasti, ABUTH); test: as above; conditions: 500 g ai/ha, 14 days after application, rating scale 0-100
Summary of the method: as §6

[13] = tested on: field corn (Zea mays L., var. Dekalb 535, CORN); test: Pre-emerge greenhouse test, crop damage rating; conditions: 500 g ai/ha, 14 days after application, rating scale 0-100
Summary of the method: as §6

[14] = tested on: upland rice (Oryza sp., var.Tebonnet, RICE); test: Pre-emerge greenhouse test, crop damage rating; conditions: 500 g ai/ha, 14 days after application, rating scale 0-100
Summary of the method: as §6

[15] = tested on: soybean (Glycine max L., var. Pella 86, SOY); test: Pre-emerge greenhouse test, crop damage rating; conditions: 500 g ai/ha, 14 days after application, rating scale 0-100
Summary of the method: as §6

[16] = tested on: common ragweed (Ambrosia artemisiifolia L., AMBEL); test: Post-emerge greenhouse herbicide test, phytotoxicity rating; conditions: 500 g al/ha, 14 days after application
Summary of the method: (§7)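 Compounds in acetone with 0.25% v/v non-ionic surfactant were track-sprayed at 187 l/ha over plants at the 2-3 leaf stage, at 63 to 1000 g ai/ha. Pots were bottom-watered. Injury was scored visually 14 days later on a 0-100 scale, where 0 is no damage and 100 is complete plant death.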

[17] = tested on: Johnsongrass (Sorghum halepense, SORHA); test: as above; conditions: 500 g al/ha, 14 days after application
Summary of the method: as §7

[18] = tested on: barnyardgrass (Echinochloa crusgalli, ECHCG); test: as above; conditions: 500 g al/ha, 14 days after application
Summary of the method: as §7

[19] = tested on: green foxtail (Setaria viridis, SETVI); test: as above; conditions: 500 g al/ha, 14 days after application
Summary of the method: as §7

[20] = tested on: ivyleaf morningglory (Ipomoea hederacea, IPOHE); test: as above; conditions: 500 g al/ha, 14 days after application
Summary of the method: as §7

[21] = tested on: lambsquarters (Chenopodium album, CHEAL); test: as above; conditions: 500 g al/ha, 14 days after application
Summary of the method: as §7

[22] = tested on: large crabgrass (Digitaria sanguinalis, DIGSA); test: as above; conditions: 500 g al/ha, 14 days after application
Summary of the method: as §7

[23] = tested on: redroot pigweed (Amaranthus retroflexus, AMARE); test: as above; conditions: 500 g al/ha, 14 days after application
Summary of the method: as §7

[24] = tested on: sicklepod (Cassia obtusifolia, CASOB); test: as above; conditions: 500 g al/ha, 14 days after application
Summary of the method: as §7

[25] = tested on: velvetleaf (Abutilon theophrasti, ABUTH); test: as above; conditions: 500 g al/ha, 14 days after application
Summary of the method: as §7

[26] = tested on: field corn (Zea mays L., var. Dekalb 535, CORN); test: Post-emerge greenhouse test, crop damage rating; conditions: 500 g al/ha, 14 days after application
Summary of the method: as §7

[27] = tested on: upland rice (Oryza sp., var.Tebonnet, RICE); test: Post-emerge greenhouse test, crop damage rating; conditions: 500 g al/ha, 14 days after application
Summary of the method: as §7

[28] = tested on: soybean (Glycine max L., var. Pella 86, SOY); test: Post-emerge greenhouse test, crop damage rating; conditions: 500 g al/ha, 14 days after application
Summary of the method: as §7

`COCC(C)N(C(=O)CCl)c1c(C)csc1C` (stereo not shown) [Dimethenamid, reference compound] was tested, and the “Percent Control of Broadleaf Weeds ABUTH” value ([1]; 520 g ai/ha) was 40%, the “Percent Control of Broadleaf Weeds AMARE” value ([1]; 520 g ai/ha) was 100% and the “Percent Control of Broadleaf Weeds AMBEL” value ([1]; 520 g ai/ha) was 40%. The “Percent Control of Broadleaf Weeds CASOB” value ([1]; 520 g ai/ha) was 40%, the “Percent Control of Broadleaf Weeds CHEAL” value ([1]; 520 g ai/ha) was 30% and the “Percent Control of Broadleaf Weeds IPOHE” value ([1]; 520 g ai/ha) was 0%. The “Percent Control of Grass Weeds DIGSA” value ([2]; Combination Example 2) was 100%, the “Percent Control of Grass Weeds ECHCG” value ([2]; Combination Example 2) was 100% and the “Percent Control of Grass Weeds SETVI” value ([2]; Combination Example 2) was 100%. The “Percent Control of Grass Weeds SORHA” value ([2]; Combination Example 2) was 100%.

`CCc1cccc(C)c1N(C(=O)CCl)C(C)COC` (stereo not shown) [Metolachlor, reference compound] was tested, and the “Percent Control of Broadleaf Weeds ABUTH” value ([1]; 1121 g ai/ha) was 20%, the “Percent Control of Broadleaf Weeds AMARE” value ([1]; 1121 g ai/ha) was 100% and the “Percent Control of Broadleaf Weeds AMBEL” value ([1]; 1121 g ai/ha) was 30%. For the same molecule, the “Percent Control of Broadleaf Weeds CASOB” value ([1]; 1121 g ai/ha) was 10%, the “Percent Control of Broadleaf Weeds CHEAL” value ([1]; 1121 g ai/ha) was 90% and the “Percent Control of Broadleaf Weeds IPOHE” value ([1]; 1121 g ai/ha) was 20%. The “Percent Control of Grass Weeds DIGSA” value [2] was 100%, the “Percent Control of Grass Weeds ECHCG” value [2] was 100% and the “Percent Control of Grass Weeds SETVI” value [2] was 100%. The “Percent Control of Grass Weeds SORHA” value [2] was 100%.

With `Cn1c(C(F)(F)F)nc(-c2cc(Oc3ncccc3C(F)(F)F)c(Cl)cc2F)c1Cl` [Compound 2-2] the “phytotoxicity rating SORHA” value [3] was 30, the “phytotoxicity rating ECHCG” value [4] was 0 and the “phytotoxicity rating AMBEL” value [5] was 20. The “phytotoxicity rating SETVI” value [6] was 100, the “phytotoxicity rating IPOHE” value [7] was 60 and the “phytotoxicity rating CHEAL” value [8] was 60. For the same molecule, the “phytotoxicity rating DIGSA” value [9] was 20, the “phytotoxicity rating AMARE” value [10] was 100 and the “phytotoxicity rating CASOB” value [11] was 0. The “phytotoxicity rating ABUTH” value [12] was 10, the “crop damage rating CORN” value [13] was 0 and the “crop damage rating RICE” value [14] was 0. For the same molecule, the “crop damage rating SOY” value [15] was 15, the “AMBEL phytotoxicity rating (0-100)” value [16] was 25 and the “SORHA phytotoxicity rating (0-100)” value [17] was 40. The “ECHCG phytotoxicity rating (0-100)” value [18] was 30, the “SETVI phytotoxicity rating (0-100)” value [19] was 30 and the “IPOHE phytotoxicity rating (0-100)” value [20] was 75. For the same molecule, the “CHEAL phytotoxicity rating (0-100)” value [21] was 90, the “DIGSA phytotoxicity rating (0-100)” value [22] was 10 and the “AMARE phytotoxicity rating (0-100)” value [23] was 95. The “CASOB phytotoxicity rating (0-100)” value [24] was 0, the “ABUTH phytotoxicity rating (0-100)” value [25] was 70 and the “CORN crop damage rating (0-100)” value [26] was 20. The “RICE crop damage rating (0-100)” value [27] was 40 and the “SOY crop damage rating (0-100)” value [28] was 35.
